Test results reported in patent publication EP0384722A1, “Chemical compositions” (PITMAN-MOORE LIMITED, priority 1989, dated 1990).

Experiment: Bioavailability in dogs of two injectable formulations (GF s/c, OS i/m) of Compound A and Sulphadimethoxine (serum levels)
Format: in vivo
Conditions: 30mg total a.i./kg
Experimental: GF = Solution in glycofurol of Compound A 2% w/v and sulphadimethoxine (SDM), 10% w/v; OS = Suspension in Miglyol 812 of Compound A, 2% w/v and SDM, 10% w/v
Six adult beagles (three male, three female, including Dogs 1 to 4 of Example 1) and six adult male cats, housed in Coopers' kennels were in all cases given a single injection at 30mg. total a.i./kg. bodyweight, i.e. 1ml./4kg. The glycofurol solution (GF) was injected s/c in the dorsal neck region and the oily suspension (OS) was injected i/m in the quadriceps (anterior thigh) muscles.
Blood samples (jugular venous samples or on some occasions from the cats, cephalic vein samples) were collected before and after injection at the times indicated in Tables 5 to 8).
A standard well-plate bio-assay method was used for Compound A, SDM being estimated by the Bratton-Marshall method. (The bio-assay method cannot distinguish between parent compound and any active metabolites present, but the results are expressed as mg/L Compound A).

Serum concentrations of SDM (dog No.1, GF s/c, 0 hours p.i.): 0 ng/mL
Serum concentrations of SDM (dog No.1, GF s/c, 1 hours p.i.): 82000 ng/mL
Serum concentrations of SDM (dog No.1, GF s/c, 4 hours p.i.): 95000 ng/mL
Serum concentrations of SDM (dog No.1, GF s/c, 7 hours p.i.): 99000 ng/mL
Serum concentrations of SDM (dog No.1, GF s/c, 24 hours p.i.): 47000 ng/mL
Serum concentrations of SDM (dog No.1, GF s/c, 28 hours p.i.): 34000 ng/mL
Serum concentrations of SDM (dog No.1, GF s/c, 31 hours p.i.): 30000 ng/mL
Serum concentrations of SDM (dog No.1, GF s/c, 48 hours p.i.): 24000 ng/mL
Serum concentrations of SDM (dog No.1, GF s/c, 55 hours p.i.): 17000 ng/mL
Serum concentrations of SDM (dog No.1, GF s/c, 72 hours p.i.): 14000 ng/mL
Serum concentrations of SDM (dog No.2, OS i/m, 0 hours p.i.): 0 ng/mL
Serum concentrations of SDM (dog No.2, OS i/m, 1 hours p.i.): 5000 ng/mL
Serum concentrations of SDM (dog No.2, OS i/m, 4 hours p.i.): 23000 ng/mL
Serum concentrations of SDM (dog No.2, OS i/m, 7 hours p.i.): 35000 ng/mL
Serum concentrations of SDM (dog No.2, OS i/m, 24 hours p.i.): 34000 ng/mL
Serum concentrations of SDM (dog No.2, OS i/m, 28 hours p.i.): 31000 ng/mL
Serum concentrations of SDM (dog No.2, OS i/m, 31 hours p.i.): 29000 ng/mL
Serum concentrations of SDM (dog No.2, OS i/m, 48 hours p.i.): 35000 ng/mL
Serum concentrations of SDM (dog No.2, OS i/m, 55 hours p.i.): 27000 ng/mL
Serum concentrations of SDM (dog No.2, OS i/m, 72 hours p.i.): 6000 ng/mL
Serum concentrations of SDM (dog No.3, GF s/c, 0 hours p.i.): 0 ng/mL
Serum concentrations of SDM (dog No.3, GF s/c, 1 hours p.i.): 21000 ng/mL
Serum concentrations of SDM (dog No.3, GF s/c, 4 hours p.i.): 90000 ng/mL
Serum concentrations of SDM (dog No.3, GF s/c, 7 hours p.i.): 99000 ng/mL
Serum concentrations of SDM (dog No.3, GF s/c, 24 hours p.i.): 51000 ng/mL
Serum concentrations of SDM (dog No.3, GF s/c, 28 hours p.i.): 40000 ng/mL
Serum concentrations of SDM (dog No.3, GF s/c, 31 hours p.i.): 30000 ng/mL
Serum concentrations of SDM (dog No.3, GF s/c, 48 hours p.i.): 19000 ng/mL
Serum concentrations of SDM (dog No.3, GF s/c, 55 hours p.i.): 12000 ng/mL
Serum concentrations of SDM (dog No.3, GF s/c, 72 hours p.i.): 21000 ng/mL
Serum concentrations of SDM (dog No.4, OS i/m, 0 hours p.i.): 0 ng/mL
Serum concentrations of SDM (dog No.4, OS i/m, 1 hours p.i.): 7000 ng/mL
Serum concentrations of SDM (dog No.4, OS i/m, 4 hours p.i.): 26000 ng/mL
Serum concentrations of SDM (dog No.4, OS i/m, 7 hours p.i.): 36000 ng/mL
Serum concentrations of SDM (dog No.4, OS i/m, 24 hours p.i.): 38000 ng/mL
Serum concentrations of SDM (dog No.4, OS i/m, 28 hours p.i.): 37000 ng/mL
Serum concentrations of SDM (dog No.4, OS i/m, 31 hours p.i.): 35000 ng/mL
Serum concentrations of SDM (dog No.4, OS i/m, 48 hours p.i.): 26000 ng/mL
Serum concentrations of SDM (dog No.4, OS i/m, 55 hours p.i.): 19000 ng/mL
Serum concentrations of SDM (dog No.4, OS i/m, 72 hours p.i.): 10000 ng/mL
Serum concentrations of SDM (dog No.5, OS i/m, 0 hours p.i.): 0 ng/mL
Serum concentrations of SDM (dog No.5, OS i/m, 1 hours p.i.): 12000 ng/mL
Serum concentrations of SDM (dog No.5, OS i/m, 4 hours p.i.): 43000 ng/mL
Serum concentrations of SDM (dog No.5, OS i/m, 7 hours p.i.): 53000 ng/mL
Serum concentrations of SDM (dog No.5, OS i/m, 24 hours p.i.): 42000 ng/mL
Serum concentrations of SDM (dog No.5, OS i/m, 28 hours p.i.): 41000 ng/mL
Serum concentrations of SDM (dog No.5, OS i/m, 31 hours p.i.): 43000 ng/mL
Serum concentrations of SDM (dog No.5, OS i/m, 48 hours p.i.): 34000 ng/mL
Serum concentrations of SDM (dog No.5, OS i/m, 55 hours p.i.): 25000 ng/mL
Serum concentrations of SDM (dog No.5, OS i/m, 72 hours p.i.): 20000 ng/mL
Serum concentrations of SDM (dog No.6, GF s/c, 0 hours p.i.): 0 ng/mL
Serum concentrations of SDM (dog No.6, GF s/c, 1 hours p.i.): 26000 ng/mL
Serum concentrations of SDM (dog No.6, GF s/c, 4 hours p.i.): 79000 ng/mL
Serum concentrations of SDM (dog No.6, GF s/c, 7 hours p.i.): 94000 ng/mL
Serum concentrations of SDM (dog No.6, GF s/c, 24 hours p.i.): 56000 ng/mL
Serum concentrations of SDM (dog No.6, GF s/c, 28 hours p.i.): 47000 ng/mL
Serum concentrations of SDM (dog No.6, GF s/c, 31 hours p.i.): 45000 ng/mL
Serum concentrations of SDM (dog No.6, GF s/c, 48 hours p.i.): 34000 ng/mL
Serum concentrations of SDM (dog No.6, GF s/c, 55 hours p.i.): 21000 ng/mL
Serum concentrations of SDM (dog No.6, GF s/c, 72 hours p.i.): 10000 ng/mL
Structure (SMILES): COc1cc(NS(=O)(=O)c2ccc(N)cc2)nc(OC)n1 [SDM, sulphadimethoxine]
